In patent US20150313922A1, “COMPOSITIONS AND METHODS FOR THE TREATMENT OF CANCERS ASSOCIATED WITH A DEFICIENCY IN THE MRE11/RAD50/NBS1 DNA DAMAGE REPAIR COMPLEX” (SLOAN-KETTERING INSTITUTE FOR CANCER RESEARCH, priority 2012, published 2015):
Like-named read-outs stand apart in the source and are kept apart here.

Key:
[1] = system: murine embryonic fibroblast cells that express a low level of Mre11 (Mre11-impaired; Mre11^ATLD1/ATLD1); assay: Colony formation of Mre11-impaired vs WT murine embryonic fibroblasts exposed to DNA damaging agents; assay type: cell-based
[2] = system: cancer cells exhibiting reduced MRN complex formation and/or functionality; assay: Growth and/or survival inhibition of cancer cells with reduced MRN complex by clastogenic agents; assay type: cell-based
[3] = cancer cells with reduced MRN complex formation and/or functionality, no experiment described

SMILES	sensitivity to growth and/or survival inhibition [2, 3]	also measured
COc1cccc2c1C(=O)c1c(O)c3c(c(O)c1C2=O)C[C@@](O)(C(=O)CO)C[C@@H]3O[C@H]1C[C@H](N)[C@H](O)[C@H](C)O1 [Adriamycin, doxorubicin]	do not exhibit increased sensitivity	susceptibility (proportion colony formation vs. concentration) of Mre11-impaired cells as compared to WT cells ([1]; Mre11^ATLD1/ATLD1 vs WT murine embryonic fibroblasts, mean of triplicate samples): equivalent response; growth and/or survival inhibition of a cell having a reduced level of MRN complex formation and/or functionality ([1]; summary statement of the description): no effect
CC[C@@]1(O)C(=O)OCc2c1cc1n(c2=O)Cc2cc3ccccc3nc2-1 [campththecin, camptothecin]	increased sensitivity	–
N.N.O=C([O-])C1(C(=O)[O-])CCC1.[Pt+2] [carboplatin]	increased sensitivity	–
N.N.[Cl][Pt][Cl] [cisplatin]	increased sensitivity	–
O=P1(N(CCCl)CCCl)NCCCO1 (stereo not shown) [cyclophosphamide]	–	sensitivity to growth and/or survival inhibition [2]: increased sensitivity
COc1cccc2c1C(=O)c1c(O)c3c(c(O)c1C2=O)C[C@@](O)(C(C)=O)C[C@@H]3O[C@H]1C[C@H](N)[C@H](O)[C@H](C)O1 [daunorubicin]	do not exhibit increased sensitivity	–
COc1cccc2c1C(=O)c1c(O)c3c(c(O)c1C2=O)C[C@@](O)(C(=O)CO)C[C@@H]3O[C@H]1C[C@H](N)[C@@H](O)[C@H](C)O1 [epirubicin]	do not exhibit increased sensitivity	–
CC(=O)[C@]1(O)Cc2c(O)c3c(c(O)c2[C@@H](O[C@H]2C[C@H](N)[C@H](O)[C@H](C)O2)C1)C(=O)c1ccccc1C3=O [idarubicin]	do not exhibit increased sensitivity	–
CCc1c2c(nc3ccc(OC(=O)N4CCC(N5CCCCC5)CC4)cc13)-c1cc3c(c(=O)n1C2)COC(=O)[C@]3(O)CC [irinotecan]	increased sensitivity	–
COS(C)(=O)=O [methymethanesulfate, methyl methanesulfonate]	increased sensitivity	–
CO[C@@]12[C@H](COC(N)=O)C3=C(C(=O)C(C)=C(N)C3=O)N1C[C@@H]1N[C@@H]12 [mitomycin C]	increased sensitivity	–
O=C1c2c(O)ccc(O)c2C(=O)c2c(NCCNCCO)ccc(NCCNCCO)c21 [mitoxantrone]	do not exhibit increased sensitivity	–
CC[C@@]1(O)C(=O)OCc2c1cc1n(c2=O)Cc2cc3c(CN(C)C)c(O)ccc3nc2-1 [topotecan]	increased sensitivity	–
CCCCC(=O)OCC(=O)[C@]1(O)Cc2c(O)c3c(c(O)c2[C@@H](O[C@H]2C[C@H](NC(=O)C(F)(F)F)[C@H](O)[C@H](C)O2)C1)C(=O)c1c(OC)cccc1C3=O [valrubicin]	do not exhibit increased sensitivity	–
